Target: T1, MLLT3 (AF9) (Homo sapiens, UniProt P42568)
T1 sequence (P42568 1-138 limits assumed): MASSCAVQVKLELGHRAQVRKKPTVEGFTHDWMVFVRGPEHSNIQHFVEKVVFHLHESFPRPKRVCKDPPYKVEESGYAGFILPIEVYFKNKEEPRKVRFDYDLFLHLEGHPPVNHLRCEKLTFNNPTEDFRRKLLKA
Assay: AlphaScreen
Assay type: binding

IC50	SMILES
7.8 µM	COc1ccc(CNC(=O)N2CCN(c3ccc(C(C)=O)cc3)CC2)cn1 [compound 1, piperazine-1-carboxamide 1]
33 µM	O=C(NCc1ccc(CN2CCCC2)cc1)N1CCN(C(=O)c2cccs2)CC1 [compound 2, piperazine-1-carboxamide 2]
> 100 µM	CCN(CC)Cc1ccc(CNC(=O)N2CCN(c3ncccn3)CC2)cc1 [compound 3, piperazine-1-carboxamide 3]

From article doi:10.1101/836932v1 (biorxiv, 2019)
